This passage reports mortality results from patent US20080227635A1, “Dicyano Alkanoic Acid Amides for Combating Animal Pests” (BASF Aktiengesellschaft, priority 2005, published 2008).

By mortality is commonly meant the share of the test organisms that died. The low end stands for a weak lethal effect, the high end for a strong lethal effect.

Holding throughout (format): in vivo
The subject of assay [1] is yellowfever mosquito (Aedes aegyptii). In words: Activity via glass contact (treated glass vials). The note with it: 10 ppm in acetone, 0.5 ml per glass vial, 22° C., untreated controls 0%. The text has this:
9. Activity against Argentine ant (Linepithema humile), harvester ant (Pogonomyrmex californicus), acrobat ant (Crematogaster spp.), carpenter ant (Camponotus floridanus), fire ant (Solenopsis invicta), house fly (Musca domestica), stable fly (Stomoxys calcitrans), flesh fly (Sarcophaga sp.), yellowfever mosquito (Aedes aegyptii), house mosquito (Culex quinquefasciatus), malaria mosquito (Anopheles albimanus), German cockroach (Blattella Germanica), cat flea (Ctenocephalides felis), and brown dog tick (Rhipicephalus sanguineus) via glass contact
Glass vials were treated with 0.5 ml of a solution of 10 ppm of the active ingredient in acetone and allowed to dry. Insects or ticks were placed into each vial together with some food and moisture supply.

Assay [2] concerns Boll weevil (Anthonomus grandis). In words: Activity against Boll weevil (eggs sprayed in microtiterplates). Conditions: 2500 ppm solution in 1:3 DMSO:water, eggs sprayed with 20 μl, 3 to 5 days, untreated controls 0%. How it is done:
1. Activity against Boll weevil (Anthonomus grandis)
The active compounds were formulated as a 2500 ppm solution in 1:3 DMSO:water. 10 to 15 eggs were placed into microtiterplates filled with 2% agar-agar in water and 300 ppm formaline. The eggs were sprayed with 20 μl of the test solution, the plates were sealed with pierced foils and kept at 24-26° C. and 75-85% humidity with a day/night cycle for 3 to 5 days. Mortality was assessed on the basis of the remaining unhatched eggs or larvae on the agar surface and/or quantity and depth of the digging channels caused by the hatched larvae. Tests were replicated 2 times.

Assay [3] concerns Vetch aphid (Megoura viciae). In words: Activity against Vetch aphid (sprayed bean leaf disks). The note with it: foliar, 144 h, 2500 ppm solution in 1:3 DMSO:water, leaf disks sprayed with 2.5 μl, adult aphids, 6 days, untreated controls 0%. How it is done:
4. Activity against Vetch aphid (Megoura viciae)
The active compounds were formulated as a 2500 ppm solution in 1:3 DMSO:water. Bean leaf disks were placed into microtiterplates filled with 0.8% agar-agar and 2.5 ppm OPUS™. The leaf disks were sprayed with 2.5 μl of the test solution and 5 to 8 adult aphids were placed into the microtiterplates which were then closed and kept at 22-24° C. and 35-45% under fluorescent light for 6 days. Mortality was assessed on the basis of vital, reproduced aphids. Tests were replicated 2 times.

Molecule `CN(C(=O)CC(C#N)(C#N)CCC(F)(F)F)C(C)(C)C#N` [I-2, 3,3-dicyano-6,6,6-trifluoro-hexanoic acid (cyano-dimethyl-methyl)-methyl-amide] displayed a mortality at 10 ppm in assay [1] above 75%. On to `CN(C(=O)CC(C#N)(C#N)CCC(F)(F)F)C(C)(C)C` [I-1, 3,3-dicyano-6,6,6-trifluoro-hexanoic acid tert-butyl-methyl-amide], for which the mortality at 2500 ppm in assay [2] and in assay [3] was above 75% each time.
